Measured values as given in PubChem BioAssay AID1259407 (Chemical Carcinogenesis Research Information System (CCRIS), 2018).
Active and inactive are the calls of the source. How the calls were made is not given here.

Test system: CCRIS mutagenicity, Ames/micronucleus/aberration tests
Assay: CCRIS mutagenicity studies
[1] = Test System: AMES SALMONELLA TYPHIMURIUM, Strain/Indicator: TA98, Metabolic Activation: NONE, Method: PREINCUBATION
[2] = Test System: AMES SALMONELLA TYPHIMURIUM, Strain/Indicator: TA98, Metabolic Activation: NONE, Method: STANDARD PLATE
[3] = Test System: AMES SALMONELLA TYPHIMURIUM, Strain/Indicator: TA100, Metabolic Activation: NONE, Method: PREINCUBATION
[4] = Test System: AMES SALMONELLA TYPHIMURIUM, Strain/Indicator: TA100, Metabolic Activation: NONE, Method: STANDARD PLATE
[5] = Test System: AMES SALMONELLA TYPHIMURIUM, Strain/Indicator: TA1538, Metabolic Activation: NONE, Method: STANDARD PLATE
[6] = Test System: AMES SALMONELLA TYPHIMURIUM, Strain/Indicator: TA1538, Metabolic Activation: RAT, LIVER, S-9, AROCLOR 1254, Method: STANDARD PLATE

With O=c1oc2ccc([N+](=O)[O-])cc2c2ccccc12 the mutagenic call (Test System: AMES SALMONELLA TYPHIMURIUM, Strain/Indicator: TA98(1,8-DNP6), Metabolic Activation: NONE, Method: MICROSUSPENSION) was “active; positive”, the mutagenic call (Test System: AMES SALMONELLA TYPHIMURIUM, Strain/Indicator: TA98(1,8-DNP6), Metabolic Activation: NONE, Method: PREINCUBATION) was “active; positive” and the mutagenic call (Test System: AMES SALMONELLA TYPHIMURIUM, Strain/Indicator: TA98(1,8-DNP6), Metabolic Activation: NONE, Method: STANDARD PLATE) was “active; positive”. The mutagenic call (Test System: AMES SALMONELLA TYPHIMURIUM, Strain/Indicator: TA98(NR), Metabolic Activation: NONE, Method: MICROSUSPENSION) was “active; positive”, the mutagenic call (Test System: AMES SALMONELLA TYPHIMURIUM, Strain/Indicator: TA98(NR), Metabolic Activation: NONE, Method: PREINCUBATION) was “inactive; negative” and the mutagenic call (Test System: AMES SALMONELLA TYPHIMURIUM, Strain/Indicator: TA98(NR), Metabolic Activation: NONE, Method: STANDARD PLATE) was “active; positive”. For the same compound, the mutagenic call (Test System: AMES SALMONELLA TYPHIMURIUM, Strain/Indicator: TA98(NR), Metabolic Activation: RAT LIVER S-9 (15%), Method: PREINCUBATION) was “active; positive”, the mutagenic call (Test System: AMES SALMONELLA TYPHIMURIUM, Strain/Indicator: TA98(NR), Metabolic Activation: RAT LIVER S-9, 3-METHYLCHOLANTHRENE (15%), Method: PREINCUBATION) was “active; positive” and the mutagenic call (Test System: AMES SALMONELLA TYPHIMURIUM, Strain/Indicator: TA98(NR), Metabolic Activation: RAT LIVER S-9, BETA-NAPHTHAFLAVONE (15%), Method: PREINCUBATION) was “active; positive”. The mutagenic call (Test System: AMES SALMONELLA TYPHIMURIUM, Strain/Indicator: TA98(NR), Metabolic Activation: RAT LIVER S-9, PCB (10%), Method: PREINCUBATION) was “active; positive”, the mutagenic call (Test System: AMES SALMONELLA TYPHIMURIUM, Strain/Indicator: TA98(NR), Metabolic Activation: RAT LIVER S-9, PHENOBARBITAL (15%), Method: PREINCUBATION) was “active; positive” and the mutagenic call (Test System: AMES SALMONELLA TYPHIMURIUM, Strain/Indicator: TA98(NR), Metabolic Activation: RAT, LIVER, S-9, AROCLOR 1254, Method: STANDARD PLATE) was “active; positive”. For the same compound, the mutagenic call (Test System: AMES SALMONELLA TYPHIMURIUM, Strain/Indicator: TA98, Metabolic Activation: NONE, Method: MICROSUSPENSION) was “active; positive”, the mutagenic call [1] was “active; positive” and the mutagenic call [2] was “active; positive”. The mutagenic call (Test System: AMES SALMONELLA TYPHIMURIUM, Strain/Indicator: TA98, Metabolic Activation: RAT, LIVER, S-9, AROCLOR 1254, Method: MICROSUSPENSION) was “active; positive”, the mutagenic call (Test System: AMES SALMONELLA TYPHIMURIUM, Strain/Indicator: TA98, Metabolic Activation: RAT, LIVER, S-9, AROCLOR 1254, Method: STANDARD PLATE) was “active; positive” and the mutagenic call (Test System: AMES SALMONELLA TYPHIMURIUM, Strain/Indicator: TA100, Metabolic Activation: NONE, Method: MICROSUSPENSION) was “active; positive”. For the same compound, the mutagenic call [3] was “active; positive”, the mutagenic call [4] was “active; positive” and the mutagenic call (Test System: AMES SALMONELLA TYPHIMURIUM, Strain/Indicator: TA100, Metabolic Activation: RAT LIVER S-9, 3-METHYLCHOLANTHRENE (15%), Method: PREINCUBATION) was “active; positive”. The mutagenic call (Test System: AMES SALMONELLA TYPHIMURIUM, Strain/Indicator: TA100, Metabolic Activation: RAT, LIVER, S-9, AROCLOR 1254, Method: MICROSUSPENSION) was “active; positive”, the mutagenic call (Test System: AMES SALMONELLA TYPHIMURIUM, Strain/Indicator: TA100, Metabolic Activation: RAT, LIVER, S-9, AROCLOR 1254, Method: STANDARD PLATE) was “active; positive” and the mutagenic call (Test System: AMES SALMONELLA TYPHIMURIUM, Strain/Indicator: TA1535, Metabolic Activation: NONE, Method: STANDARD PLATE) was “active; positive”. The mutagenic call (Test System: AMES SALMONELLA TYPHIMURIUM, Strain/Indicator: TA1535, Metabolic Activation: RAT, LIVER, S-9, AROCLOR 1254, Method: STANDARD PLATE) was “active; positive”, the mutagenic call (Test System: AMES SALMONELLA TYPHIMURIUM, Strain/Indicator: TA1537, Metabolic Activation: NONE, Method: STANDARD PLATE) was “active; positive” and the mutagenic call (Test System: AMES SALMONELLA TYPHIMURIUM, Strain/Indicator: TA1537, Metabolic Activation: RAT, LIVER, S-9, AROCLOR 1254, Method: STANDARD PLATE) was “active; positive”. For the same compound, the mutagenic call [5] was “active; positive”, the mutagenic call [6] was “active; positive” and the mutagenic call (Test System: AMES SALMONELLA TYPHIMURIUM, Strain/Indicator: TA7001, Metabolic Activation: NONE, Method: PREINCUBATION) was “inactive; negative”. The mutagenic call (Test System: AMES SALMONELLA TYPHIMURIUM, Strain/Indicator: TA7001, Metabolic Activation: RAT LIVER S-9, 3-METHYLCHOLANTHRENE (15%), Method: PREINCUBATION) was “inactive; negative”, the mutagenic call (Test System: AMES SALMONELLA TYPHIMURIUM, Strain/Indicator: TA7002, Metabolic Activation: RAT LIVER S-9, 3-METHYLCHOLANTHRENE (15%), Method: PREINCUBATION) was “active; positive” and the mutagenic call (Test System: AMES SALMONELLA TYPHIMURIUM, Strain/Indicator: TA7003, Metabolic Activation: NONE, Method: PREINCUBATION) was “inactive; negative”. The mutagenic call (Test System: AMES SALMONELLA TYPHIMURIUM, Strain/Indicator: TA7003, Metabolic Activation: RAT LIVER S-9, 3-METHYLCHOLANTHRENE (15%), Method: PREINCUBATION) was “inactive; negative”, the mutagenic call (Test System: AMES SALMONELLA TYPHIMURIUM, Strain/Indicator: TA7004, Metabolic Activation: RAT LIVER S-9, 3-METHYLCHOLANTHRENE (15%), Method: PREINCUBATION) was “active; positive” and the mutagenic call (Test System: AMES SALMONELLA TYPHIMURIUM, Strain/Indicator: TA7005, Metabolic Activation: RAT LIVER S-9, 3-METHYLCHOLANTHRENE (15%), Method: PREINCUBATION) was “active; positive”. For the same compound, the mutagenic call (Test System: AMES SALMONELLA TYPHIMURIUM, Strain/Indicator: TA7006, Metabolic Activation: NONE, Method: PREINCUBATION) was “inactive; negative” and the mutagenic call (Test System: AMES SALMONELLA TYPHIMURIUM, Strain/Indicator: TA7006, Metabolic Activation: RAT LIVER S-9, 3-METHYLCHOLANTHRENE (15%), Method: PREINCUBATION) was “active; positive”.
In the case of CC(=O)[C@]1(O)Cc2c(O)c3c(c(O)c2[C@@H](O[C@H]2C[C@H](N)[C@H](OC(C[C@H](C)O)O[C@@H](C)C=O)[C@H](C)O2)C1)C(=O)c1c(O)cccc1C3=O (stereo not given in full), the mutagenic call [1] is reported as “active; positive”, the mutagenic call (Test System: AMES SALMONELLA TYPHIMURIUM, Strain/Indicator: TA98, Metabolic Activation: RAT, LIVER, S-9, Method: PREINCUBATION) is reported as “active; positive” and the mutagenic call (Test System: AMES SALMONELLA TYPHIMURIUM, Strain/Indicator: TA98, Metabolic Activation: S-9, Method: PREINCUBATION) is reported as “active; positive”. The mutagenic call [3] was “active; positive”, the mutagenic call (Test System: AMES SALMONELLA TYPHIMURIUM, Strain/Indicator: TA100, Metabolic Activation: RAT, LIVER, S-9, Method: PREINCUBATION) was “active; positive” and the mutagenic call (Test System: AMES SALMONELLA TYPHIMURIUM, Strain/Indicator: TA100, Metabolic Activation: S-9, Method: PREINCUBATION) was “active; positive”. The mutagenic call (Test System: CHINESE HAMSTER V-79, Strain/Indicator: V-79/6-THIOGUANINE, Metabolic Activation: NONE) was “active; positive” and the mutagenic call (Test System: CHINESE HAMSTER V-79, Strain/Indicator: V-79/6-THIOGUANINE, Metabolic Activation: NONE, Method: REPLATING) was “active; positive”.
With Nc1ccc(-c2ccc(-c3ccc(N)cc3)cc2)cc1 the mutagenic call [5] was “active; positive”, the mutagenic call [6] was “active; positive” and the mutagenic call (Test System: CHINESE HAMSTER V-79, Strain/Indicator: V-79/6-THIOGUANINE, Metabolic Activation: NONE, Method: SUSPENSION/PLATE) was “active; positive”. For the same compound, the mutagenic call (Test System: CHINESE HAMSTER V-79, Strain/Indicator: V-79/6-THIOGUANINE, Metabolic Activation: RAT, LIVER, S-9, AROCLOR 1254, Method: SUSPENSION/PLATE) was “inactive; negative” and the mutagenic call (Test System: CHINESE HAMSTER V-79, Strain/Indicator: V-79/6-THIOGUANINE, Metabolic Activation: RAT, LIVER, S-9, PHENOBARBITAL AND BETA-NAPHTHOFLAVONE, Method: SUSPENSION/PLATE) was “inactive; negative”.
With ClCc1cccc2c1-c1cccc3cccc-2c13 the mutagenic call [2] was “active; positive” and the mutagenic call [4] was “active; positive”.
With COc1ccc([Se]c2ccc(OC)cc2)cc1 the mutagenic call (Test System: AMES SALMONELLA TYPHIMURIUM, Strain/Indicator: TA97A, Metabolic Activation: NONE, Method: STANDARD PLATE) was “inactive; negative” and the mutagenic call [4] was “active; positive”.
